IC50 data for 16 compounds are collected here from patent US8592469B2, “Diazonamide analogs” (Joyant Pharmaceuticals, Inc., priority 2012, dated 2013).

The subject of experiment [1] is U937 cells. In words: Cell viability assay (Cell-Titer-Glo) in U937 cells. The class given is cell-based. The settings on record: Homo sapiens, U-937, 48 hour treatment, test compounds 1 nM to 1 μM. How it is done: (§1) Cell viability assays were run using standard protocols known to those of skill in art. Cells were plated in 96 well plates at the density of 3,000-10,000 cells per well. Twenty four hours later, cells were treated with increasing concentration of test compounds (1 nM to 1 μM). After another 48 hour, cell survival was measured using Cell-Titer-Glo® reagent (Promega) following the protocol provided by the manufacture. The IC50 value was determined as the concentration of test compound that kills 50% of the cell population.
(§2) Cell viability data generated according to the protocol described above was generated for representative compounds in A2058 and U937 cells. The compounds shown in Table 1 were prepared by the methods described herein for structurally similar compounds. The reference compound was a synthetic diazonamide analog having the structure: […]

For experiment [2], the system named is A2058 cells. In words: Cell viability assay (Cell-Titer-Glo) in A2058 cells. The settings on record: Homo sapiens, 48 hour treatment, test compounds 1 nM to 1 μM. The class given is cell-based. How it is done:
as §1, §2

In the case of `CC(C)[C@H](O)C(=O)NC1Cc2ccc3c(c2)[C@]2(C4=C(c5nc(-c6ncc[nH]6)co5)N=C(O4)[C@H](C(C)C)NC1=O)c1ccccc1NC2O3` (some centres unmarked) [Compound 45], the half-inhibitory concentration (IC50) (as a rule, the midpoint of a concentration-inhibition curve) in experiment [1] came out at 318 nM; in experiment [2] it was 589 nM.
Taken in the same sequence, the figures for `CC(C)[C@H](O)C(=O)NC1Cc2ccc3c(c2)C2(C4=C(c5nc(C6OCCCO6)co5)N=C(O4)[C@H](C(C)C)NC1=O)c1ccccc1N[C@H]2O3` (some centres unmarked) [Compound 41] were 65 nM and 65 nM.
Taken in the same sequence, the figures for `COC(=O)c1coc(-c2nc3oc2C24c5ccccc5NC2Oc2ccc(cc24)C[C@H](NC(=O)[C@@H](O)C(C)C)C(=O)N[C@H]3C(C)(C)C)n1` (some centres unmarked) [Compound 50] were 12 nM and 53 nM.
On to `COC(=O)NCc1coc(-c2nc3oc2C24c5ccccc5N[C@H]2Oc2ccc(cc24)C[C@H](NC(=O)[C@@H](O)C(C)C)C(=O)N[C@H]3C(C)C)n1` (some centres unmarked) [Compound 34], for which the values for the IC50 in experiment [1] and in experiment [2] were 134 nM and 149 nM, respectively.
For `COC(=O)c1coc(-c2nc3oc2[C@@]24c5ccccc5NC2Oc2c(Cl)cc(cc24)CC(NC(=O)[C@@H](O)C(C)C)C(=O)N[C@H]3C(C)C)n1` (some centres unmarked) [Compound 70], in that order: 15 nM and 77 nM.
As for `COC(=O)c1coc(-c2nc3oc2[C@]24c5ccccc5NC2Oc2ccc(cc24)CC[C@H](NC(=O)[C@@H](O)C(C)C)C(=O)N[C@H]3C(C)(C)C)n1` (some centres unmarked) [Compound 74], the IC50 in experiment [1] and in experiment [2] was over 100 nM each time.
Regarding `COC(=O)c1coc(-c2nc3oc2C24c5ccccc5N[C@H]2Oc2ccc(cc24)C[C@H](NC(=O)[C@@H](O)C(C)C)C(=O)N[C@@H]3C(C)C)n1` (some centres unmarked) [Compound 99], the IC50 in experiment [1] and in experiment [2] was over 1000 nM in each case.
Turning to `CCC(O)(CC)C(=O)N[C@H]1Cc2ccc3c(c2)C2(C4=C(c5nc(C#N)co5)N=C(O4)[C@H](C(C)(C)C)NC1=O)c1ccccc1N[C@H]2O3` (some centres unmarked) [Compound 65], the IC50 amounted to 67.6 nM in experiment [1] and 16.8 nM in experiment [2].
Turning to `COC(=O)c1coc(-c2coc([C@@H]3CCCN3C(=O)[C@H](Cc3ccc4c(c3)[C@@H]3c5ccccc5NC3O4)NC(=O)[C@@H](O)C(C)C)n2)n1` (some centres unmarked) [Compound 61], the IC50 was 761 nM in experiment [1] and over 1000 nM in experiment [2].
Taken in the same sequence, the figures for `CC(C)[C@H](O)C(=O)N[C@H]1Cc2ccc3c(c2)C2(C4=C(c5nc(CO)co5)N=C(O4)[C@H](C(C)C)NC1=O)c1ccccc1N(S(C)(=O)=O)[C@H]2O3` (some centres unmarked) [Compound 77] were 777 nM and over 1000 nM.
Taken in the same sequence, the figures for `CC(C)[C@H](O)C(=O)N[C@H]1Cc2ccc3c(c2)C2(C4=C(c5nc(COP(=O)(O)O)co5)N=C(O4)[C@H](C(C)C)NC1=O)c1ccccc1N[C@H]2O3` (some centres unmarked) [Compound 25] were 36.9 nM and 70.8 nM.
Consider `CC(C)[C@H](O)C(=O)N[C@H]1Cc2ccc3c(c2)C2(C4=C(c5nc(C#N)co5)N=C(O4)[C@H](C(C)C)NC1=O)c1ccccc1N[C@H]2O3` (some centres unmarked) [Compound 39], for which the IC50 is 71 nM in experiment [1] and 23 nM in experiment [2].
For `CC(C)=CC(=O)N[C@H]1Cc2ccc3c(c2)C2(C4=C(c5nc(C#N)co5)N=C(O4)[C@H](C(C)(C)C)NC1=O)c1ccccc1N[C@H]2O3` (some centres unmarked) [Compound 66], the IC50 in experiment [1] was found to be 215 nM; in experiment [2] it was 186 nM.
For `CC(C)c1coc(-c2nc3oc2C24c5ccccc5N[C@H]2Oc2ccc(cc24)C[C@H](NC(=O)[C@@H](O)C(C)C)C(=O)N[C@H]3C(C)C)n1` (some centres unmarked) [Compound 101], in that order: 500 nM and 684 nM.
Taken in the same sequence, the figures for `CC(C)C[C@H](O)C(=O)NC1Cc2ccc3c(c2)C2(C4=C(c5nc(C#N)co5)N=C(O4)[C@H](C(C)(C)C)NC1=O)c1ccccc1N[C@H]2O3` (some centres unmarked) [Compound 67] were 89.7 nM and 35.8 nM.
With `COC(=O)c1coc(-c2nc3oc2C24c5ccccc5NC2Oc2ccc(cc24)C[C@H](NC(=O)[C@@H](O)C(C)C)C(=O)N[C@H]3CC(C)C)n1` (some centres unmarked) [Compound 49], the IC50 was 223 nM in experiment [1] and over 1000 nM in experiment [2].
